In patent US20230111310A1, “CARBOXYLIC ACID DERIVATIVE-SUBSTITUTED IMINO ARYL COMPOUND, PREPARATION METHOD THEREFOR, HERBICIDAL COMPOSITION AND USE THEREOF” (Qingdao Kingagroot Chemical Compound Co., Ltd., priority 2020, published 2023):

Key:
Assay in all cases: Weeding effect in post-emergence stage
Assay type in all cases: in vivo
[1] = tested on: Echinochloa crusgalli; settings: Dose 15 g/ha; for Weeding effect in post-emergence stage, Echinochloa crusgalli (level): fresh weight control rate level; for Weeding effect in post-emergence stage, Echinochloa crusgalli: level of fresh weight growth control rate
Text: (§1) The activity level criteria for plant damage (i.e., growth control rate) are as follows:
(§2) Monocotyledonous and dicotyledonous weed seeds (Descurainia sophia, Capsella bursa-pastoris, Abutilon theophrasti, Galium aparine, Stellaria media, Lithospermum arvense, rorippa indica, Alopecurus aequalis, Alopecurus japonicus, Eleusine indica, Beckmannia syzigachne, Sclerochloa dura, Conyza Canadensis, Phleum paniculatum, Veronica didyma Tenore, Bromus japonicus, Aegilops tauschii, Phalaris arundinacea, Amaranthus retroflexus, Chenopodiaceae, Commelina communis, Sonchus arvensis, Convolvulus arvensis, Cirsium setosum, Bidens tripartita L., Solanum nigrum, Acalypha australis, Digitaria sanguinalis, Echinochloa crusgalli, Setaria viridis, Setaria glauca, Leptochloa chinensis, Monochoria vaginalis, Sagittaria trifolia, Scirpus juncoides, Cyperus rotundus, Cyperus iria, Cyperus difformis, Fimbristylis, Portulaca oleracea, Xanthium sibiricum, Pharbitis nil, etc.) and major crop seeds (wheat, corn, rice, soybean, cotton, oilseed rape, millet, sorghum, potato, sesame, ricinus, etc.) were placed in plastic pots filled with soil, then covered with 0.5-2 cm of soil, allowed to grow in a good greenhouse environment. After 2 weeks of sowing, the test plants were treated in the 2-3 leaf stage. The tested compounds of the present invention were respectively dissolved in acetone, then added with Tween 80 and 1.5 liter/ha of emulsifiable concentrate of methyl oleate as synergist, diluted with a certain amount of water to obtain a solution with a certain concentration, and sprayed with a spray tower onto the plants. After the application, the plants were cultured for 3 weeks in the greenhouse, and then the experimental results of the weeding were counted. The doses of the used compounds were 500, 250, 125, 60, 30, 15, 7.5 g/ha, and the averages were obtained by repeating for three times.

[2] = tested on: Setaria viridis; settings: Dose 15 g/ha; for Weeding effect in post-emergence stage, Setaria viridis (level): fresh weight control rate level; for Weeding effect in post-emergence stage, Setaria viridis: level of fresh weight growth control rate
Text: as §1
as §2, with “The doses of the used compounds were 500, 250, 125, 60, 30, 15, 7.5 g/ha, and the averages were obtained by repeating for three times.” left out

[3] = tested on: Alopecurus japonicus; settings: Dose 15 g/ha; for Weeding effect in post-emergence stage, Alopecurus japonicus (level): fresh weight control rate level; for Weeding effect in post-emergence stage, Alopecurus japonicus: level of fresh weight growth control rate
Text: as §1
as §2, with “The doses of the used compounds were 500, 250, 125, 60, 30, 15, 7.5 g/ha, and the averages were obtained by repeating for three times.” left out

[4] = tested on: Abutilon theophrasti; settings: Dose 15 g/ha; for Weeding effect in post-emergence stage, Abutilon theophrasti (level): fresh weight control rate level; for Weeding effect in post-emergence stage, Abutilon theophrasti: level of fresh weight growth control rate
Text: as §1
as §2, with “The doses of the used compounds were 500, 250, 125, 60, 30, 15, 7.5 g/ha, and the averages were obtained by repeating for three times.” left out

[5] = tested on: Digitaria sanguinalis; settings: Dose 15 g/ha; for Weeding effect in post-emergence stage, Digitaria sanguinalis (level): fresh weight control rate level; for Weeding effect in post-emergence stage, Digitaria sanguinalis: level of fresh weight growth control rate
Text: as §1
as §2, with “The doses of the used compounds were 500, 250, 125, 60, 30, 15, 7.5 g/ha, and the averages were obtained by repeating for three times.” left out

[6] = tested on: Eleusine indica; settings: Dose 15 g/ha; for Weeding effect in post-emergence stage, Eleusine indica (level): fresh weight control rate level; for Weeding effect in post-emergence stage, Eleusine indica: level of fresh weight growth control rate
Text: as §1
as §2, with “The doses of the used compounds were 500, 250, 125, 60, 30, 15, 7.5 g/ha, and the averages were obtained by repeating for three times.” left out

Row | Compound | Weeding effect in post-emergence stage, Echinochloa crusgalli (level) [1] | Weeding effect in post-emergence stage, Setaria viridis (level) [2] | Weeding effect in post-emergence stage, Alopecurus japonicus (level) [3] | Weeding effect in post-emergence stage, Abutilon theophrasti (level) [4] | Weeding effect in post-emergence stage, Digitaria sanguinalis (level) [5] | Weeding effect in post-emergence stage, Eleusine indica (level) [6] | Weeding effect in post-emergence stage, Echinochloa crusgalli [1] | Weeding effect in post-emergence stage, Setaria viridis [2] | Weeding effect in post-emergence stage, Alopecurus japonicus [3] | Weeding effect in post-emergence stage, Abutilon theophrasti [4] | Weeding effect in post-emergence stage, Digitaria sanguinalis [5] | Weeding effect in post-emergence stage, Eleusine indica [6]
1 | CC(CC#N)OC(=O)[C@@H](C)O/N=C/c1cc(-n2c(=O)cc(C(F)(F)F)n(C)c2=O)c(F)cc1Cl (stereo partly drawn) [444(R)] | 5 (Level 5: growth control rate is above 85%) | 5 (Level 5: growth control rate is above 85%) | 5 (Level 5: growth control rate is above 85%) | 5 (Level 5: growth control rate is above 85%) | 5 (Level 5: growth control rate is above 85%) | 5 (Level 5: growth control rate is above 85%) | – | – | – | – | – | –
2 | COC(=O)CCNC(=O)C(C)O/N=C/c1cc(-n2c(=O)n(C)c(=S)n(C)c2=O)c(F)cc1Cl (racemic) [Compound 183] | – | – | – | – | – | – | 5 (Level 5: growth control rate is above 85%) | 5 (Level 5: growth control rate is above 85%) | 5 (Level 5: growth control rate is above 85%) | 5 (Level 5: growth control rate is above 85%) | 5 (Level 5: growth control rate is above 85%) | 5 (Level 5: growth control rate is above 85%)
3 | CC(C#N)OC(=O)[C@@H](C)O/N=C/c1cc(-n2c(=O)cc(C(F)(F)F)n(C)c2=O)c(F)cc1Cl (stereo partly drawn) [443(R)] | 5 (Level 5: growth control rate is above 85%) | 5 (Level 5: growth control rate is above 85%) | 5 (Level 5: growth control rate is above 85%) | 5 (Level 5: growth control rate is above 85%) | 5 (Level 5: growth control rate is above 85%) | 5 (Level 5: growth control rate is above 85%) | – | – | – | – | – | –
4 | C[C@@H](O/N=C/c1cc(-n2c(=O)cc(C(F)(F)F)n(C)c2=O)c(F)cc1Cl)C(=O)OCCC#N [227(R)] | – | – | – | – | – | – | 5 (Level 5: growth control rate is above 85%) | 5 (Level 5: growth control rate is above 85%) | 5 (Level 5: growth control rate is above 85%) | 5 (Level 5: growth control rate is above 85%) | 5 (Level 5: growth control rate is above 85%) | 5 (Level 5: growth control rate is above 85%)
5 | C[C@@H](O/N=C/c1cc(-n2c(=O)n(C)c(=S)n(C)c2=O)c(F)cc1Cl)C(=O)OCc1ccco1 [26(R)] | – | – | – | – | – | – | 5 (Level 5: growth control rate is above 85%) | 5 (Level 5: growth control rate is above 85%) | 5 (Level 5: growth control rate is above 85%) | 5 (Level 5: growth control rate is above 85%) | 5 (Level 5: growth control rate is above 85%) | 5 (Level 5: growth control rate is above 85%)
6 | COC(=O)[C@@H](C)O/N=C/c1cc(-n2c(=O)n(C)c(=O)n(C)c2=O)c(F)cc1Cl [164(R)] | – | – | – | – | – | – | 5 (Level 5: growth control rate is above 85%) | 5 (Level 5: growth control rate is above 85%) | 5 (Level 5: growth control rate is above 85%) | 5 (Level 5: growth control rate is above 85%) | 5 (Level 5: growth control rate is above 85%) | 5 (Level 5: growth control rate is above 85%)
